One may read the half-life as how long it takes for the measured level to halve. Low readings indicate fast loss, high ones slow loss. As a reminder, the CC50 is the concentration at which the toxic effect on the cells reaches its halfway point. A low value points to harm at low concentration. What is called EC50 is the concentration giving half of the maximal effect.

Series [1] is described as follows: In vitro intracellular half-life of 2′-C-methyl guanosine-5′-triphosphate (Compound 7) in human primary hepatocytes. The settings on record: human, primary hepatocytes (cellular extracts). The class given is in vitro ADME. On the procedure:
(§1) Primary hepatocytes were incubated with 10 μM [^14C]-Compound 1 ([…]) or [^14C]-2′-C-methyl guanosine (127 DPM/μmol) for 24 hours at which time the incubation medium was removed and the cell monolayer carefully washed two times with warm (37° C.) PBS and placed back in culture with drug-free medium. At selected times up to 24 hours, the medium was removed and the cell monolayers carefully washed two times with ice-cold PBS. Following the last wash, all PBS was carefully removed and the cell monolayers processed and extracted as previously described. […]

Series [2] has as its system human primary hepatocytes. The description is as above. The class given is in vitro ADME. The note with it: for Decay of Compound 7: level in cellular extracts: human hepatocytes Hu775; for Compound 7 levels after 24 hours without drug / reduction of Compound 7 levels after 24 hours without drug / Compound 7 levels at time zero: human hepatocytes. Here is the method: as §1

The nature of series [3]: Cytotoxicity assay (MTS), Zluc cells. The class given is cell-based, human. The note with it: human; Zluc cells, 3 days (Luciferase Assay columns). Here is the method:
The cytotoxicity assay measures the viability of cells after treatment with a test compound for 3 days in either GS4.1 cells or Zluc cells. […] The cytotoxicity assay is summarized as follows. Ninety-six-well tissue culture plates were seeded with GS4.1 or Zluc cells. Antiviral compound solutions were made up freshly in medium as 2×-concentrated stocks. Eight additional 3-fold drug dilutions were prepared from these stocks in medium for a total of 9 dilutions. At least four hours after the cells were seeded, drug treatment was initiated by adding one volume of each 2×-concentrated drug dilution to one volume of cells/medium in the tissue culture plates. Cells were then incubated for 3 days at 37° C./5% CO2. After 3 days of treatment, the CellTiter 96® Aqueous One Solution cell proliferation assay (Promega) was performed by adding the MTS solution to each well. The plates were then incubated at 37° C./5% CO2 for 3.5 hours. Plates were then read in a Victor^3V 1420 multilabel counter (Perkin Elmer) and CC50 concentrations were determined using Microsoft Excel and XLfit 4.1 software.

Series [4] relates to S282T HCV replicon (184R-D2 cells). The series is described as follows: microbe, parasite or virus in culture. Here is the method: (§2) 1. […] Huh-7 cells were seeded into column 1 of each plate at a similar density.
(§3) 2. […] Eight additional 3-fold serial dilutions of each compound were prepared from the 2× stock in assay medium. Final drug concentrations ranged from 100 to 0.015 μM.
(§4) 3. […] This setup was run in duplicate in each 96-well plate.
(§5) 4. Cells were incubated with inhibitors for three days at 37° C./5% CO2.
(§6) 1. After three days of drug treatment, media was removed from the plates via gentle tapping and the cells were fixed to the plates with 100 μL/well of 1:1 acetone:methanol.
(§7) 2. After one minute of incubation at room temperature, plates were washed three times with 100 μL/well of ELISA wash solution and then blocked with 150 μL/well of 10% FBS-TNE.
(§8) 3. After a one hour incubation at room temperature, plates were washed three times with 100 μL/well of ELISA wash solution, and then 100 μL/well of mouse anti-hepatitis C […] mAb (1 mg/mL stock diluted 1:1,500 in 10% FBS-TNE) was added.
(§9) 4. Following 2 hours of incubation at 37° C., plates were washed three times with 100 μL/well of ELISA wash solution, and then 100 μL/well of HRP-goat anti-mouse antibody (diluted 1:4,000 in 10% FBS-TNE) was added.
(§10) 4. After a one hour incubation period at 37° C., each plate was washed three times with 100 μL/well of ELISA wash solution. Color development was then initiated with 100 μL/well of OPD solution.
(§11) 5. After a 30 minute incubation period in the dark at room temperature, reactions were stopped by adding 100 μL of 2NH2SO4 to each well.
(§12) 6. The absorbance was measured at 490 nm on a Victor^3 V 1420 multilabel counter (Perkin Elmer). The percent inhibition of HCV replicon replication was calculated for each drug using an average of the duplicate wells.

Series [5] relates to wild-type HCV replicon (GS4.1 cells). Description: microbe, parasite or virus in culture. Here is the method: as §2, §3, §4, §5, §6, §7, §8, §9, §10, §11, §12
A further series deals with CYP3A4 (Homo sapiens, UniProt P08684). Description: Incubation with human recombinant CYP450 supersomes, 3A4. The class given is in vitro ADME. The settings on record: CYP450 3A4 supersomes, 60 min, 10 μM, average of two experiments. Here is the method:
Supersomes—Incubations were conducted in a final volume of 0.1 mL reaction buffer (50-100 mM potassium phosphate, pH 7.4 or 100 mM Tris-HCL, pH 7.4) according to protocol provided with each CYP450 supersome. Each reaction contained […] of CYP450 supersome, 1.3 mM NADP^+, 3.3 mM glucose-6-phosphate, 0.4 U/mL glucose-6-phosphate dehydrogenase, 3.3 mM MgCl2 and 10 μM Compound 1. Following incubation for 60 min at 37° C., 100 μL of stop solution (acetonitrile:methanol; 1:1) was added and samples centrifuged for 10 min at 10,000×g. The supernatant was then dried and reconstituted in 10 mM potassium phosphate, pH 5, further transferred to an HPLC glass vial and analyzed by HPLC-UV (described above).

[6] abbreviates: [^14C]-2′-C-methyl guanosine removed.

Some results are limits rather than exact numbers.

CYP3A4, sequence (P08684 whole entry): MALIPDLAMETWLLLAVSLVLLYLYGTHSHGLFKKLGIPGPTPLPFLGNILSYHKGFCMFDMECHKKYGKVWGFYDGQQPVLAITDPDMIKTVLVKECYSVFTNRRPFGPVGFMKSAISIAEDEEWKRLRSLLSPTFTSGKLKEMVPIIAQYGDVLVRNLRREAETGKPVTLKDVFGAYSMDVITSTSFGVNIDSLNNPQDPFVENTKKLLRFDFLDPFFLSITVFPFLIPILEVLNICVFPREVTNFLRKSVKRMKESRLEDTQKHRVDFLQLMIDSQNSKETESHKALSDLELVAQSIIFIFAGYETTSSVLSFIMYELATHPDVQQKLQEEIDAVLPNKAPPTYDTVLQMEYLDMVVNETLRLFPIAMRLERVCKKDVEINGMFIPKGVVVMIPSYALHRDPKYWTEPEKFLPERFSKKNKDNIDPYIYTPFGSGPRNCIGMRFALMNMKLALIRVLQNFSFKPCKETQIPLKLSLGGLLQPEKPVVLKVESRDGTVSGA

`C[C@@]1(O)[C@H](O)[C@@H](COP(=O)(O)OP(=O)(O)OP(=O)(O)O)O[C@H]1n1cnc2c(=O)[nH]c(N)nc21` [Compound 7, [(2R)-2-methyl-β-D-ribofuranosyl]guanine 5′-triphosphate]: the half-life at 10 μM in series [1] (in vitro half-life for Compound 7, human hepatocytes, after 2′-C-methyl guanosine) was 10.8 h; in series [1] (in vitro half-life for Compound 7, human hepatocytes, following [^14C]-Compound 1), 17.4 h; in series [1] (in vitro intracellular t1/2 of Compound 7, human hepatocytes Hu775, after 24 h incubation with 10 μM [^14C]-2′-C-methyl guanosine, linear regression), 10.8 h; in series [1] (in vitro intracellular t1/2 of Compound 7, human hepatocytes Hu775, after 24 h incubation with 10 μM [^14C]-Compound 1, linear regression) it was 17.4 h. Moreover, the “Decay of Compound 7: level in cellular extracts” value in series [2] (after 24 h incubation with 10 μM [^14C]-2′-C-methyl guanosine, decay time 0 h) was 266 pmol/million cells; in series [2] (after 24 h incubation with 10 μM [^14C]-2′-C-methyl guanosine, decay time 1 h), 259 pmol/million cells; in series [2] (after 24 h incubation with 10 μM [^14C]-2′-C-methyl guanosine, decay time 4 h), 217 pmol/million cells; in series [2] (after 24 h incubation with 10 μM [^14C]-2′-C-methyl guanosine, decay time 8 h), 190 pmol/million cells; in series [2] (after 24 h incubation with 10 μM [^14C]-2′-C-methyl guanosine, decay time 24 h), 58.0 pmol/million cells; in series [2] (after 24 h incubation with 10 μM [^14C]-Compound 1, decay time 0 h) it was 692 pmol/million cells. For the same compound, the “Decay of Compound 7: level in cellular extracts” value in series [2] (after 24 h incubation with 10 μM [^14C]-Compound 1, decay time 1 h) is 702 pmol/million cells; in series [2] (after 24 h incubation with 10 μM [^14C]-Compound 1, decay time 4 h), 597 pmol/million cells; in series [2] (after 24 h incubation with 10 μM [^14C]-Compound 1, decay time 8 h), 497 pmol/million cells; in series [2] (after 24 h incubation with 10 μM [^14C]-Compound 1, decay time 24 h), 273 pmol/million cells. Moreover, the entries for the “Compound 7 levels after 24 hours without drug” value in series [2] (setting [6]) and in series [2] ([^14C]-Compound 1 removed) were 58 pmol/million cells and 273 pmol/million cells, respectively. For the same compound, the “reduction of Compound 7 levels after 24 hours without drug” value was determined as 78% in series [2] (setting [6]) and 61% in series [2] ([^14C]-Compound 1 removed). In addition, the entries for the “Compound 7 levels at time zero” value in series [2] (after 24 h with 10 μM [^14C]-Compound 1) and in series [2] (after 24 h with [^14C]-2′-C-methyl guanosine) were 692 pmol/million cells and 266 pmol/million cells, respectively.

`CC(C)(CO)C(=O)SCCOP(=O)(NCc1ccccc1)OC[C@H]1O[C@@H](n2cnc3c(=O)[nH]c(N)nc32)[C@](C)(O)[C@@H]1O` (mixture of isomers) [Compound 1, 3-hydroxy-2,2-dimethyl-thiopropionic acid S-(2-{[(2R,3R,4R,5R)-5-(2-amino-6-oxo-1,6-dihydro-purin-9-yl)-3,4-dihydroxy-4-methyl-tetrahydro-furan-2-ylmethoxy]-benzylamino-phosphoryloxy}-ethyl) ester]: the CC50 at 3 days in series [3] is > 100 µM. The “Fold shift from wild-type” value in series [4] (184R-D2 (S282T), EC50 in resistant line divided by EC50 in wild-type cells) came to 130 fold; in series [5] (GS4.1 (wild-type), EC50 reference), 1 fold. Moreover, the EC50 worked out at 39 ± 10 µM in series [4] (Hepatitis C virus) and 0.3 µM in series [5] (Hepatitis C virus). For the same compound, on CYP3A4, the “% Residual Compound 1” value is recorded as 62%.
